In the supplement of paper PMC10307832:

What was measured:
Test in all cases: relative viability (nuclei count vs DMSO), 5 days (fraction); higher = more cells survive
IA-LM = tested on: IA-LM
How it was run: (§1)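 Relative viability was taken as the ratio of nuclei in treated wells to nuclei in vehicle wells. Lung cancer cell lines in 1536-well plates received compounds by pin tool one day after seeding, either one drug alone or a fixed anchor-drug dose plus five library-drug doses (not always all listed) in √10 steps. Nuclei were counted on 4× images after 5 days of treatment, and values are medians of duplicate plates.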

NCI-H1666 = tested on: NCI-H1666
How it was run: as §1

NCI-H1755 = tested on: NCI-H1755
How it was run: as §1

NCI-H1650 = tested on: NCI-H1650
How it was run: as §1

NCI-H650 = tested on: NCI-H650
How it was run: as §1

A549 = tested on: A549
How it was run: as §1

NCI-H1299 = tested on: NCI-H1299
How it was run: as §1

EBC-1 = tested on: EBC-1
How it was run: as §1

NCI-H1703 = tested on: NCI-H1703
How it was run: as §1

Calu-6 = tested on: Calu-6
How it was run: as §1

Question: `C=C1C(=O)O[C@@H](CCCCCCCC)[C@@H]1C(=O)O` [C-75] + O=C(CCCCCCC(=O)Nc1ccccc1)NO [Vorinostat] (partner 1 µM) was tested. Which relative viability (IA-LM; first compound 0.08 µM) did it give?
Answer: 0.886

Question: And the relative viability (IA-LM; first compound 0.253 µM)?
Answer: 1.35

Question: What about the relative viability (IA-LM; first compound 0.8 µM) of the same molecule?
Answer: 0.935

Question: What about the relative viability (IA-LM; first compound 2.53 µM) of the same molecule?
Answer: 1.25

Question: What about the relative viability (IA-LM; first compound 8 µM) of the same molecule?
Answer: 0.8

Question: What about the relative viability (NCI-H1666; first compound 0.08 µM) of the same molecule?
Answer: 1.05

Question: And the relative viability (NCI-H1666; first compound 0.253 µM)?
Answer: 1.3

Question: What about the relative viability (NCI-H1666; first compound 0.8 µM) of the same molecule?
Answer: 0.895

Question: And the relative viability (NCI-H1666; first compound 8 µM)?
Answer: 0.913

Question: What about the relative viability (NCI-H1755; first compound 0.08 µM) of the same molecule?
Answer: 0.732

Question: And the relative viability (NCI-H1755; first compound 0.253 µM)?
Answer: 0.868

Question: What about the relative viability (NCI-H1755; first compound 0.8 µM) of the same molecule?
Answer: 0.692

Question: What about the relative viability (NCI-H1755; first compound 2.53 µM) of the same molecule?
Answer: 0.774

Question: And the relative viability (NCI-H1755; first compound 8 µM)?
Answer: 0.732

Question: And the relative viability (NCI-H1650; first compound 0.08 µM)?
Answer: 0.597

Question: And the relative viability (NCI-H1650; first compound 0.253 µM)?
Answer: 0.751

Question: And the relative viability (NCI-H1650; first compound 0.8 µM)?
Answer: 0.665

Question: What about the relative viability (NCI-H1650; first compound 8 µM) of the same molecule?
Answer: 0.463

Question: And the relative viability (NCI-H650; first compound 0.08 µM)?
Answer: 0.413

Question: What about the relative viability (NCI-H650; first compound 0.253 µM) of the same molecule?
Answer: 0.388

Question: And the relative viability (NCI-H650; first compound 0.8 µM)?
Answer: 0.401

Question: What about the relative viability (NCI-H650; first compound 2.53 µM) of the same molecule?
Answer: 0.351

Question: And the relative viability (NCI-H650; first compound 8 µM)?
Answer: 0.416

Question: Which results are given for `Oc1nc(-c2ccc(C(F)(F)F)cc2)nc2c1CSCC2` [XAV939] + O=C(CCCCCCC(=O)Nc1ccccc1)NO [Vorinostat] (partner 1 µM)?
Answer: relative viability (IA-LM; first compound 0.08 µM): 1.08; relative viability (IA-LM; first compound 0.253 µM): 0.664; relative viability (IA-LM; first compound 0.8 µM): 0.951; relative viability (IA-LM; first compound 2.53 µM): 0.778; relative viability (NCI-H1666; first compound 0.08 µM): 0.978; relative viability (NCI-H1666; first compound 0.253 µM): 0.889; relative viability (NCI-H1666; first compound 0.8 µM): 0.906; relative viability (NCI-H1666; first compound 2.53 µM): 1.15; relative viability (NCI-H1755; first compound 0.08 µM): 0.783; relative viability (NCI-H1755; first compound 0.253 µM): 0.729; relative viability (NCI-H1755; first compound 0.8 µM): 0.74; relative viability (NCI-H1755; first compound 2.53 µM): 0.602; relative viability (NCI-H1650; first compound 0.08 µM): 0.909; relative viability (NCI-H1650; first compound 0.253 µM): 0.524; relative viability (NCI-H1650; first compound 0.8 µM): 0.391; relative viability (NCI-H1650; first compound 2.53 µM): 0.525; relative viability (NCI-H650; first compound 0.08 µM): 0.461; relative viability (NCI-H650; first compound 0.253 µM): 0.345; relative viability (NCI-H650; first compound 0.8 µM): 0.506; relative viability (NCI-H650; first compound 2.53 µM): 0.368

Question: With `C=C1C(=O)O[C@@H](CCCCCCCC)[C@@H]1C(=O)O` [C-75] + CC1(C)CCC(c2ccc(Cl)cc2)=C(CN2CCN(c3ccc(C(=O)NS(=O)(=O)c4ccc(N[C@H](CCN5CCOCC5)CSc5ccccc5)c(S(=O)(=O)C(F)(F)F)c4)cc3)CC2)C1 [Navitoclax] (partner 0.5 µM) as the molecule, how does the relative viability (A549; first compound 0.08 µM) read?
Answer: 1.12

Question: What about the relative viability (A549; first compound 0.253 µM) of the same molecule?
Answer: 1.29

Question: What about the relative viability (A549; first compound 0.8 µM) of the same molecule?
Answer: 1.18

Question: What about the relative viability (A549; first compound 2.53 µM) of the same molecule?
Answer: 0.819

Question: What about the relative viability (A549; first compound 8 µM) of the same molecule?
Answer: 1.15

Question: And the relative viability (IA-LM; first compound 0.08 µM)?
Answer: 0.754

Question: And the relative viability (IA-LM; first compound 0.253 µM)?
Answer: 0.834

Question: What about the relative viability (IA-LM; first compound 0.8 µM) of the same molecule?
Answer: 0.819

Question: And the relative viability (IA-LM; first compound 2.53 µM)?
Answer: 0.52

Question: And the relative viability (IA-LM; first compound 8 µM)?
Answer: 0.512

Question: What about the relative viability (NCI-H1299; first compound 0.08 µM) of the same molecule?
Answer: 1.07

Question: And the relative viability (NCI-H1299; first compound 0.253 µM)?
Answer: 1.03

Question: And the relative viability (NCI-H1299; first compound 0.8 µM)?
Answer: 1.05

Question: What about the relative viability (NCI-H1299; first compound 2.53 µM) of the same molecule?
Answer: 1.03

Question: What about the relative viability (NCI-H1299; first compound 8 µM) of the same molecule?
Answer: 1.12

Question: What about the relative viability (EBC-1; first compound 0.08 µM) of the same molecule?
Answer: 0.389

Question: What about the relative viability (EBC-1; first compound 0.253 µM) of the same molecule?
Answer: 0.508

Question: What about the relative viability (EBC-1; first compound 0.8 µM) of the same molecule?
Answer: 0.306

Question: And the relative viability (EBC-1; first compound 2.53 µM)?
Answer: 0.356

Question: What about the relative viability (EBC-1; first compound 8 µM) of the same molecule?
Answer: 0.219

Question: And the relative viability (NCI-H1666; first compound 0.08 µM)?
Answer: 0.94

Question: What about the relative viability (NCI-H1666; first compound 0.253 µM) of the same molecule?
Answer: 1.19

Question: What about the relative viability (NCI-H1666; first compound 0.8 µM) of the same molecule?
Answer: 0.742

Question: And the relative viability (NCI-H1666; first compound 2.53 µM)?
Answer: 0.891

Question: What about the relative viability (NCI-H1666; first compound 8 µM) of the same molecule?
Answer: 0.567

Question: And the relative viability (NCI-H1703; first compound 0.08 µM)?
Answer: 1.15

Question: What about the relative viability (NCI-H1703; first compound 0.253 µM) of the same molecule?
Answer: 1.12

Question: And the relative viability (NCI-H1703; first compound 0.8 µM)?
Answer: 0.817

Question: And the relative viability (NCI-H1703; first compound 2.53 µM)?
Answer: 1.09

Question: And the relative viability (NCI-H1703; first compound 8 µM)?
Answer: 0.967

Question: What about the relative viability (Calu-6; first compound 0.08 µM) of the same molecule?
Answer: 0.819

Question: And the relative viability (Calu-6; first compound 0.253 µM)?
Answer: 0.864

Question: And the relative viability (Calu-6; first compound 0.8 µM)?
Answer: 0.786

Question: What about the relative viability (Calu-6; first compound 2.53 µM) of the same molecule?
Answer: 0.738

Question: What about the relative viability (Calu-6; first compound 8 µM) of the same molecule?
Answer: 0.714

Question: And the relative viability (NCI-H1755; first compound 0.08 µM)?
Answer: 0.945

Question: What about the relative viability (NCI-H1755; first compound 0.253 µM) of the same molecule?
Answer: 0.935

Question: And the relative viability (NCI-H1755; first compound 0.8 µM)?
Answer: 1.02

Question: And the relative viability (NCI-H1755; first compound 2.53 µM)?
Answer: 0.711

Question: And the relative viability (NCI-H1755; first compound 8 µM)?
Answer: 0.957

Question: And the relative viability (NCI-H1650; first compound 0.08 µM)?
Answer: 1.22

Question: What about the relative viability (NCI-H1650; first compound 0.253 µM) of the same molecule?
Answer: 1.36

Question: What about the relative viability (NCI-H1650; first compound 0.8 µM) of the same molecule?
Answer: 1.22

Question: And the relative viability (NCI-H1650; first compound 2.53 µM)?
Answer: 1.36

Question: And the relative viability (NCI-H1650; first compound 8 µM)?
Answer: 0.97
